From patent US9212201B2, “Antifungal and antiparasitic polyene macrolides” (priority 2010, dated 2015)
≈ marks a conversion by molar mass, not a printed value. Where two headings read alike, the source gives them in different places.

Experiments:
[1] = background statement; cited from earlier work
Histoplasma capsulatum = format: cell-based; details: 4 of the H isolates
C. tropicalis = experiment: In vitro antifungal susceptibility CLSI M27-A2 (MIC, MFC); format: cell-based; details: C. tropicalis (10)
Blastomyces dermatitidis = experiment: Broth macrodilution MIC/MFC against endemic fungal pathogens; format: cell-based; details: for MFC: >96% kill of the inoculum
Coccidioides sp = format: cell-based
[2] = system: Other Candida species (C. lipolytica, C. sake, C. sphaerica, C. norvegica); experiment: In vitro antifungal susceptibility CLSI M27-A2 (MIC, MFC); format: cell-based; details: Other Candida spp. (4)
C. lusitaniae = experiment: as above; format: cell-based; details: C. lusitaniae (10)
[3] = system: 14 clinical isolates: Coccidioides, Blastomyces, Histoplasma capsulatum, Paracoccidioides; format: cell-based; details: of 14 isolates
C. guilliermondii = experiment: In vitro antifungal susceptibility CLSI M27-A2 (MIC, MFC); format: cell-based; details: C. guilliermondii (2)
Water solubility = format: physicochemical; details: in words
C. kefyr = experiment: In vitro antifungal susceptibility CLSI M27-A2 (MIC, MFC); format: cell-based; details: C. kefyr (10)
Naegleria fowleri = experiment: Primary amoebic meningoencephalitis in mice; format: in vivo, Balb/c mice; details: 9 mg/kg/day for a total of 10 days
[4] = Blastomyces dermatitidis isolate 1
[5] = Blastomyces dermatitidis isolate 2

## C[C@@H]1[C@H](O)[C@@H](C)/C=C/C=C/C=C/C=C/C=C/C=C/C=C/[C@H](O[C@@H]2O[C@H](C)[C@@H](O)[C@H](N)[C@@H]2O)C[C@@H]2O[C@](O)(C[C@@H](O)C[C@@H](O)[C@H](O)CC[C@@H](O)C[C@@H](O)CC(=O)O[C@H]1C)C[C@H](O)[C@H]2C(=O)O [Amphotericin B, amphotericin B]
[1]
  Water solubility: insoluble in water
Histoplasma capsulatum
  MFC: 0.5 µg/mL (≈ 0.541 µM)
  MIC: 0.5 µg/mL (≈ 0.541 µM)
C. tropicalis
  GM (geometric mean MIC): 0.95 µg/mL
  MFC: 2 µg/mL (≈ 2.16 µM)
  MIC50: 1 µg/mL (≈ 1.08 µM)
  MIC90: 1 µg/mL (≈ 1.08 µM)
  MIC Range: 0.5 to 1.0 µg/mL
Blastomyces dermatitidis; [4]
  MIC: 2/2 mcg/mL
  MFC: 2/2 mcg/mL
Blastomyces dermatitidis; [5]
  MIC: 1/1 mcg/mL
  MFC: 1/1 mcg/mL
Coccidioides sp; 2 C isolates
  MFC higher than corifungin: ≥ 4 fold
Coccidioides sp; 3 of the C isolates
  MFC: ≥ 8 µg/mL
  MIC: 4 µg/mL (≈ 4.33 µM)
Coccidioides sp; Coccidioides sp isolate 1
  MIC: 2 µg/mL (≈ 2.16 µM)
Coccidioides sp; Coccidioides sp isolate 1, >96% kill of the inoculum
  MFC: 8 µg/mL (≈ 8.66 µM)
Coccidioides sp; Coccidioides sp isolate 2
  MIC: 4 µg/mL (≈ 4.33 µM)
Coccidioides sp; Coccidioides sp isolate 2, >96% kill of the inoculum
  MFC: 8 µg/mL (≈ 8.66 µM)
Coccidioides sp; Coccidioides sp isolate 3
  MIC: 1 µg/mL (≈ 1.08 µM)
Coccidioides sp; Coccidioides sp isolate 3, >96% kill of the inoculum
  MFC: > 8 µg/mL
Coccidioides sp; Coccidioides sp isolate 4
  MIC: 4/4 mcg/mL
Coccidioides sp; Coccidioides sp isolate 4, >96% kill of the inoculum
  MFC: 4/4 mcg/mL
Coccidioides sp; Coccidioides sp isolate 5
  MIC: 4/4 mcg/mL
Coccidioides sp; Coccidioides sp isolate 5, >96% kill of the inoculum
  MFC: 4/4 mcg/mL
[2]
  GM (geometric mean MIC): 0.95 µg/mL
  MFC: 2 µg/mL (≈ 2.16 µM)
  MIC50: 1 µg/mL (≈ 1.08 µM)
  MIC Range: 0.5 to 1.0 µg/mL
C. lusitaniae
  GM (geometric mean MIC): 0.575 µg/mL
  MFC: 0.5 µg/mL (≈ 0.541 µM)
  MIC50: 0.5 µg/mL (≈ 0.541 µM)
  MIC90: 1.0 µg/mL (≈ 1.08 µM)
  MIC Range: 0.25 to 1.0 µg/mL
[3]
  cases in which MFCs equaled MICs: 11/14
C. guilliermondii
  GM (geometric mean MIC): 0.5 µg/mL
  MFC: 1 µg/mL (≈ 1.08 µM)
  MIC Range: 0.5 µg/mL (≈ 0.541 µM)
Water solubility
  Water solubility: insoluble
C. kefyr
  GM (geometric mean MIC): 1.25 µg/mL
  MFC: 1 µg/mL (≈ 1.08 µM)
  MIC50: 1 µg/mL (≈ 1.08 µM)
  MIC90: 2 µg/mL (≈ 2.16 µM)
  MIC Range: 0.12 to 2.0 µg/mL
Naegleria fowleri
  survival: no improvement in survival over the control
